Patent US4310590A (priority 1979, dated 1982)

How the values were obtained:
Plasmopora viticola = experiment: whole plant or invertebrate; format: in vivo; details: for pest or weed control at 300 ppm / pest or weed control at 38 ppm / pest or weed control at 75 ppm: read-out: Disease Control Level, GDM; for Disease Control Level, GDM: 150 ppm
Botrytis cinerea = experiment: whole plant or invertebrate; format: in vivo; details: for pest or weed control at 300 ppm / pest or weed control at 38 ppm / pest or weed control at 75 ppm: Botrytis cinerea, read-out: Disease Control Level, BOT; for Disease Control Level, BOT: 150 ppm
Helminthosporium teres = experiment: whole plant or invertebrate; format: in vivo; details: Pyrenophora teres, in Hordeum vulgare, read-out: Disease Control Level, BH
Phytophthora infestans = experiment: whole plant or invertebrate; format: in vivo; details: Phytophthora infestans, in Solanum lycopersicum, read-out: Disease Control Level, TLB
[1] = system: Puccinia graminis f. sp. tritici; experiment: whole plant or invertebrate; format: in vivo, Puccinia graminis f. sp. tritici race 15B-2; details: for Disease Control Level, WSR: 150 ppm, wheat seedlings
Erysiphe polygoni = experiment: whole plant or invertebrate; format: in vivo; details: read-out: Disease Control Level, BPM
Piricularia oryzae = experiment: whole plant or invertebrate; format: in vivo; details: for Disease Control Level, RB: 150 ppm
Staphylococcus aureus = experiment: Serial Dilution Test (Broth Titer Test), antibacterial, Staphylococcus aureus; format: cell-based; details: Staphylococcus aureus, read-out: SDT, MIC
Description: Antibacterial and antifungal activity were evaluated by the Serial Dilution Test (Broth Titer Test) wherein a series of broths containing varying dilutions of a test compound and an organism are halved starting with 1:1,000. The values shown represent the maximum dilution in parts per million at which the compound under evaluation renders complete control of the organism. Pseudomonas aeruginosa (P), Staphylococcus aureus (S), and Escherichia coli (E) were the bacterial organisms employed in this test, and the fungi employed were Aspergillus niger (A) and Rhizopus stolonifer (R).
^a In vitro serial dilution test (SDT), minimum inhibitory
concentrations (MIC) against E = E. coli, P = Ps. aeruginosa, S =
Staphylococcus aureus, A = A. niger, and R = Rhizopus stolonifer are give
in parts per million of a biocide.

[2] = Puccinia graminis, read-out: Disease Control Level, WSR
[3] = Pyricularia oryzae, read-out: Disease Control Level, RB

Work on `Cc1c(SC(=S)N(C)C)sn(CCc2ccccc2)c1=O` [Example 7] yielded a pest or weed control at 300 ppm (Plasmopora viticola) of 50%, a pest or weed control at 300 ppm (Botrytis cinerea) of 50% and a pest or weed control at 300 ppm (Helminthosporium teres) of 50%. It also gave a pest or weed control at 300 ppm (Phytophthora infestans) of 50%, a pest or weed control at 38 ppm [1, 2] of 50% and a pest or weed control at 75 ppm [1, 2] of 50%. For the same compound, the pest or weed control at 150 ppm [1, 2] was 50%, the pest or weed control at 300 ppm [1, 2] was 97 to 100% and the pest or weed control at 300 ppm (Erysiphe polygoni) was 50%. The “Disease Control Level, RB” value (Piricularia oryzae) was “B/E”, the pest or weed control at 38 ppm (Piricularia oryzae; [3]) was 90 to 96% and the pest or weed control at 75 ppm (Piricularia oryzae; [3]) was 90 to 96%. For the same compound, the MIC (Staphylococcus aureus) was over 500 µg/mL.
In the case of `CN(C)C(=S)Sc1sn(CCc2ccccc2)c(=O)c1Cl` [Example 3, 4-Chloro-5-(N,N-dimethylthiocarbamoyl)thio-2-phenethyl-4-isothiazolin-3-one], the pest or weed control at 300 ppm (Plasmopora viticola) was 50%, the pest or weed control at 300 ppm (Botrytis cinerea) was 50% and the pest or weed control at 300 ppm (Helminthosporium teres) was 50%. For the same compound, the pest or weed control at 300 ppm (Phytophthora infestans) was 50%, the pest or weed control at 300 ppm [1, 2] was 70 to 89% and the pest or weed control at 300 ppm (Erysiphe polygoni) was 50%. For the same compound, the pest or weed control at 300 ppm (Piricularia oryzae; [3]) was 50% and the MIC (Staphylococcus aureus) was over 500 µg/mL.
For `CN(C)C(=S)Sc1cc(=O)n(CCc2ccccc2)s1` [Example 4], the pest or weed control at 38 ppm (Plasmopora viticola) was 90 to 96%, the pest or weed control at 75 ppm (Plasmopora viticola) was 97 to 100% and the “Disease Control Level, GDM” value (Plasmopora viticola) was “A/A”. For the same compound, the pest or weed control at 300 ppm (Plasmopora viticola) was 90 to 96%, the “Disease Control Level, BOT” value (Botrytis cinerea) was “A/C” and the pest or weed control at 38 ppm (Botrytis cinerea) was 90 to 96%. It also gave a pest or weed control at 75 ppm (Botrytis cinerea) of 90 to 96%, a pest or weed control at 300 ppm (Botrytis cinerea) of 90 to 96% and a pest or weed control at 300 ppm (Helminthosporium teres) of 50%. The pest or weed control at 300 ppm (Phytophthora infestans) was 50%, the “Disease Control Level, WSR” value [1] was “E/E” and the pest or weed control at 300 ppm [1, 2] was 97 to 100%. The pest or weed control at 300 ppm (Erysiphe polygoni) was 50%, the pest or weed control at 38 ppm (Piricularia oryzae; [3]) was 50% and the pest or weed control at 75 ppm (Piricularia oryzae; [3]) was 50%. It also gave a pest or weed control at 150 ppm (Piricularia oryzae; [3]) of 97 to 100% and an MIC (Staphylococcus aureus) of over 500 µg/mL.
`CN(C)C(=S)Sc1cc(=O)n(Cc2ccccc2)s1` [Example 1, 2-Benzyl-5-(N,N-dimethylthiocarbamoyl)thio-4-isothiazolin-3-one] was tested, and the pest or weed control at 38 ppm (Plasmopora viticola) was 50 to 69%, the pest or weed control at 75 ppm (Plasmopora viticola) was 70 to 89% and the “Disease Control Level, GDM” value (Plasmopora viticola) was “C/C”. For the same compound, the pest or weed control at 300 ppm (Plasmopora viticola) was 90 to 96%, the “Disease Control Level, BOT” value (Botrytis cinerea) was “B/B” and the pest or weed control at 38 ppm (Botrytis cinerea) was 70 to 89%. The pest or weed control at 75 ppm (Botrytis cinerea) was 70 to 89%, the pest or weed control at 300 ppm (Botrytis cinerea) was 90 to 96% and the pest or weed control at 38 ppm (Helminthosporium teres; 38 ppm) was 50%. The pest or weed control at 75 ppm (Helminthosporium teres; 75 ppm) was 50%, the pest or weed control at 150 ppm (Helminthosporium teres; 150 ppm) was 50% and the pest or weed control at 300 ppm (Helminthosporium teres) was 97 to 100%. The pest or weed control at 300 ppm (Phytophthora infestans) was 50%, the “Disease Control Level, WSR” value [1] was “C/C” and the pest or weed control at 38 ppm [1, 2] was 50%. For the same compound, the pest or weed control at 75 ppm [1, 2] was 50%, the pest or weed control at 300 ppm [1, 2] was 90 to 96% and the pest or weed control at 300 ppm (Erysiphe polygoni) was 50%. For the same compound, the “Disease Control Level, RB” value (Piricularia oryzae) was “A/E”, the pest or weed control at 38 ppm (Piricularia oryzae; [3]) was 97 to 100% and the pest or weed control at 75 ppm (Piricularia oryzae; [3]) was 97 to 100%. It also gave an MIC (Staphylococcus aureus) of over 500 µg/mL.
`CCCCCCCCn1sc(SC(=S)N(C)C)cc1=O` [Example 6] was tested, and the pest or weed control at 300 ppm (Plasmopora viticola) was 50%, the pest or weed control at 300 ppm (Botrytis cinerea) was 50% and the pest or weed control at 300 ppm (Helminthosporium teres) was 50%. The pest or weed control at 300 ppm [1, 2] was 97 to 100% and the pest or weed control at 300 ppm (Erysiphe polygoni) was 50%.
With `N#Cc1cc(=O)n(CCc2ccccc2)s1` [Example 15, 5-Cyano-2-phenethyl-4-isothiazolin-3-one] the MIC (Staphylococcus aureus) was over 500 µg/mL.
With `O=c1cc(SC(=S)N(Cc2ccccc2)Cc2ccccc2)sn1CCc1ccccc1` [Example 12, 5-(N,N-Dibenzylthiocarbamoyl)thio-2-phenethyl-4-isothiazolin-3-one] the pest or weed control at 300 ppm (Plasmopora viticola) was 50%, the pest or weed control at 300 ppm (Botrytis cinerea) was 50% and the pest or weed control at 300 ppm (Helminthosporium teres) was 50%. The pest or weed control at 300 ppm (Phytophthora infestans) was 50%, the pest or weed control at 300 ppm [1, 2] was 50% and the pest or weed control at 300 ppm (Erysiphe polygoni) was 50%. The pest or weed control at 300 ppm (Piricularia oryzae; [3]) was 50%.
